The record followed here is ChEMBL document CHEMBL1201862, “PubChem BioAssay data set” (2004).

Among the test systems are A498; A549; ACHN; BT-549; DU-145; EKVX; HT-29; LOX IMVI; MCF7; MDA-N; Malme-3M; OVCAR-3; OVCAR-4; PC-3; SF-539; SK-MEL-28; SK-OV-3; SNB-19; SNB-75; UO-31.
What all share (assay): growth of human tumour cells (NCI), 48 h

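Values below derive from 48-hour exposures of cells grown in 96-well plates, with endpoints linearly interpolated between the two concentrations bracketing the appropriate inhibition level. The concentration for 50% growth inhibition is given as GI50.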 Activity calls are given as the source filed them. Cut-off read from the data, not from the text of the source: active = GI50 up to about 1.1 µM and inactive = higher. Where only a bound is given, the exact number is not on record here.

Regarding `CC/C(Cl)=N\OC(=O)Nc1ccc(C#N)cc1`, the GI50 in the assay with A498 is 16.6 µM (inactive); with A549, 18.2 µM (inactive); in the assay with ACHN it was 14.3 µM (inactive); in the assay with BT-549 it was 15.1 µM (inactive); in the assay with DU-145, 16 µM (inactive); in the assay with EKVX, 13.3 µM (inactive). Further, the GI50 in the assay with HT-29 is 18.6 µM (inactive); in the assay with LOX IMVI, 4.47 µM (inactive); with MCF7, 15.1 µM (inactive); in the assay on MDA-N, 16.3 µM (inactive); with Malme-3M it was 4.11 µM (inactive); with OVCAR-3 it was 18.5 µM (inactive). Further, the GI50 was 8.09 µM (inactive) in the assay with OVCAR-4; 16.7 µM (inactive) in the assay on PC-3; 16.6 µM (inactive) in the assay with SF-539; 18 µM (inactive) in the assay on SK-MEL-28; 4.94 µM (inactive) with SK-OV-3; > 100 µM (inactive) in the assay on SNB-19. The values for the GI50 in the assay with SNB-75 and in the assay with UO-31 were 14.9 µM (inactive) and 17.2 µM (inactive), respectively.

In the case of `c1ccc2c(c1)nc1n2CCCn2ccnc2-1`, the GI50 in the assay on A498 is > 100 µM (inactive); in the assay with A549, > 100 µM (inactive); in the assay with ACHN it was 73.6 µM (inactive); with BT-549, > 100 µM (inactive); in the assay with DU-145, > 100 µM (inactive); with EKVX, 43 µM (inactive). In addition, the GI50 in the assay with HT-29, with LOX IMVI, with MCF7, in the assay on MDA-N, in the assay on Malme-3M and in the assay on OVCAR-3 was > 100 µM (inactive) in each case. Besides, the GI50 was > 100 µM (inactive) with OVCAR-4; > 100 µM (inactive) in the assay with PC-3; 96.2 µM (inactive) in the assay with SF-539; > 100 µM (inactive) in the assay on SK-MEL-28; 0.0137 µM (active) with SK-OV-3; > 100 µM (inactive) in the assay with SNB-19. The GI50 in the assay with SNB-75 was > 100 µM (inactive); in the assay on UO-31, 99.3 µM (inactive).

Regarding `CCCCCc1c(CCCC)c(=O)[nH]c2cc(CNCC(OC)OC)ccc12`, the GI50 was 15.1 µM (inactive) with A498; 12.6 µM (inactive) in the assay on A549; 14.4 µM (inactive) with ACHN; 14.8 µM (inactive) with BT-549; 14.6 µM (inactive) in the assay with DU-145; 16.2 µM (inactive) in the assay on EKVX. For the same molecule, the GI50 with HT-29 was 3.91 µM (inactive); in the assay with LOX IMVI, 6.01 µM (inactive); in the assay on MCF7 it was 12.9 µM (inactive); with MDA-N, 11.7 µM (inactive); in the assay on Malme-3M it was 2.83 µM (inactive); with OVCAR-3, 17.3 µM (inactive). In addition, the GI50 in the assay with OVCAR-4 is 14.7 µM (inactive); in the assay with PC-3 it was 12.2 µM (inactive); with SF-539, 14.8 µM (inactive); with SK-MEL-28 it was 5.71 µM (inactive); in the assay on SK-OV-3, 18.1 µM (inactive); with SNB-19, 12.8 µM (inactive). Besides, the results for the GI50 in the assay with SNB-75 and with UO-31 were 15.6 µM (inactive) and 13.2 µM (inactive), respectively.

Take `O=C1CC(Cl)c2c1csc2Br` (stereo not given): the GI50 in the assay with A498 was 24.1 µM (inactive); in the assay on A549, 19 µM (inactive); in the assay on ACHN, 15.6 µM (inactive); in the assay on BT-549, 19.9 µM (inactive); in the assay with DU-145, 29.4 µM (inactive); with EKVX, 20.3 µM (inactive). Besides, the GI50 was 21.7 µM (inactive) with HT-29; 14.1 µM (inactive) in the assay on LOX IMVI; 6.25 µM (inactive) with MCF7; 19.3 µM (inactive) in the assay on MDA-N; 15.7 µM (inactive) in the assay with Malme-3M; 16.3 µM (inactive) in the assay with OVCAR-3. Besides, the GI50 was 25.9 µM (inactive) with OVCAR-4; 12.8 µM (inactive) in the assay with PC-3; 3 µM (inactive) with SF-539; 17.8 µM (inactive) in the assay on SK-MEL-28; 18.6 µM (inactive) in the assay with SK-OV-3; 17.5 µM (inactive) with SNB-19. The GI50 was 19.8 µM (inactive) with SNB-75 and 8.93 µM (inactive) with UO-31.

With `O=C1C(=O)N(c2cccc(C(F)(F)F)c2)C(=O)C(=O)C1c1nc2ccccc2s1`, the GI50 with A498 is > 100 µM (inactive); with A549, > 100 µM (inactive); in the assay with ACHN, > 65.2 µM (inactive); with BT-549, > 100 µM (inactive); with DU-145, > 100 µM (inactive); in the assay on EKVX, > 100 µM (inactive). Further, the GI50 is 78.3 µM (inactive) in the assay with HT-29; 68.9 µM (inactive) in the assay on LOX IMVI; 45.1 µM (inactive) in the assay on MCF7; > 100 µM (inactive) in the assay on MDA-N; 68.1 µM (inactive) in the assay with Malme-3M; 48.6 µM (inactive) with OVCAR-3. The GI50 was > 92.5 µM (inactive) in the assay on OVCAR-4; > 100 µM (inactive) in the assay with PC-3; > 100 µM (inactive) in the assay on SF-539; > 100 µM (inactive) with SK-MEL-28; > 100 µM (inactive) in the assay on SK-OV-3; > 100 µM (inactive) in the assay with SNB-19. The GI50 in the assay with SNB-75 is > 49.5 µM (inactive); with UO-31 it was 79.8 µM (inactive).

As for `COc1ccc2nc(N/N=C/C(C)=N/Nc3cc(C)c4cc(OC)ccc4n3)cc(C)c2c1`, the GI50 with A498 is > 68.2 µM (inactive); in the assay on A549, 19.7 µM (inactive); in the assay on ACHN, 26.7 µM (inactive); in the assay on BT-549, 74.3 µM (inactive); in the assay with DU-145 it was 18.1 µM (inactive); with EKVX, 19.2 µM (inactive). Also, the GI50 was 12.7 µM (inactive) in the assay on HT-29; 22.6 µM (inactive) with LOX IMVI; 14.3 µM (inactive) with MCF7; 23.7 µM (inactive) in the assay on MDA-N; 50.9 µM (inactive) with Malme-3M; 26.5 µM (inactive) with OVCAR-3. In addition, the GI50 is 18.5 µM (inactive) in the assay with OVCAR-4; 22.3 µM (inactive) in the assay on PC-3; 17.8 µM (inactive) in the assay on SF-539; 35.2 µM (inactive) in the assay with SK-MEL-28; > 83.8 µM (inactive) with SK-OV-3; 23.1 µM (inactive) in the assay with SNB-19. Besides, the GI50 in the assay on SNB-75 is 21.9 µM (inactive); in the assay on UO-31, > 80.4 µM (inactive).

Take `CCCCCCCCCCCCCCCCCCNc1ccn(C2OC(COP(=O)(O)OCC3CCC(n4cnc5c(=O)[nH]cnc54)O3)C(O)C2O)c(=O)n1` (stereo not given): the GI50 in the assay with A498, in the assay with A549, in the assay with ACHN, with BT-549, in the assay with DU-145 and with EKVX was > 100 µM (inactive) in each case. For the same molecule, the GI50 in the assay with HT-29, in the assay with LOX IMVI, in the assay with MCF7, in the assay with MDA-N, with Malme-3M and with OVCAR-3 was > 100 µM (inactive) throughout. Moreover, the GI50 in the assay with OVCAR-4 was > 100 µM (inactive); with PC-3 it was 14.2 µM (inactive); with SF-539, 83.8 µM (inactive); with SK-MEL-28, > 100 µM (inactive); with SK-OV-3 it was > 100 µM (inactive); in the assay on SNB-19 it was > 100 µM (inactive). Moreover, the GI50 with SNB-75 and in the assay on UO-31 was > 100 µM (inactive) throughout.

As for `O=C(NCCCCCCNC(=O)c1cc(-c2ccccc2)nc2ccccc12)c1cc(-c2ccccc2)nc2ccccc12`, the GI50 in the assay on A498, in the assay on A549, in the assay on ACHN, with BT-549, with DU-145 and in the assay with EKVX was > 100 µM (inactive) throughout. Moreover, the GI50 with HT-29, in the assay with LOX IMVI, in the assay with MCF7, in the assay with MDA-N, with Malme-3M and in the assay on OVCAR-3 was > 100 µM (inactive) throughout. Further, the GI50 in the assay on OVCAR-4, in the assay with PC-3, with SF-539, in the assay with SK-MEL-28, in the assay with SK-OV-3 and in the assay with SNB-19 was > 100 µM (inactive) throughout. For the same molecule, the GI50 with SNB-75 was 33.3 µM (inactive); in the assay on UO-31 it was > 100 µM (inactive).

On to `Cc1nn(-c2ccccc2)c2nc3c(c(C)nn3-c3ccccc3)c(-c3ccccc3Br)c12`, for which the GI50 with A498 was > 100 µM (inactive); in the assay with A549, 8.95 µM (inactive); in the assay with ACHN, > 100 µM (inactive); in the assay on BT-549 it was > 100 µM (inactive); in the assay on DU-145, > 100 µM (inactive); in the assay on EKVX, > 100 µM (inactive). Further, the GI50 in the assay on HT-29, in the assay on LOX IMVI, in the assay on MCF7, in the assay with MDA-N, in the assay on Malme-3M and in the assay on OVCAR-3 was > 100 µM (inactive) throughout. The GI50 with OVCAR-4, in the assay with PC-3, with SF-539, in the assay on SK-MEL-28, in the assay with SK-OV-3 and in the assay with SNB-19 was > 100 µM (inactive) throughout. Moreover, the GI50 is > 100 µM (inactive) with SNB-75 and 59.4 µM (inactive) in the assay on UO-31.

Take `O=C1c2ccccc2C(=O)c2c1ccc1c2OCO1`: the GI50 in the assay with A498 was > 100 µM (inactive); in the assay with A549, > 100 µM (inactive); in the assay with ACHN it was > 10 µM (inactive); in the assay with BT-549, > 100 µM (inactive); with DU-145, > 100 µM (inactive); with EKVX, > 100 µM (inactive). Also, the GI50 with HT-29, with LOX IMVI, in the assay on MCF7, in the assay with MDA-N, with Malme-3M and in the assay with OVCAR-3 was > 100 µM (inactive) throughout. Also, the GI50 in the assay on OVCAR-4, in the assay on PC-3, in the assay with SF-539, with SK-MEL-28, with SK-OV-3 and in the assay on SNB-19 was > 100 µM (inactive) throughout. Also, the GI50 is 23.1 µM (inactive) with SNB-75 and > 100 µM (inactive) in the assay with UO-31.
